Data as given in patent publication US20150253323A1, “METHODS AND KITS FOR HIGH THROUGHPUT SCREENING FOR COMPOUNDS TARGETING DNA-BINDING AND RNA-BINDING PROTEINS” (The Florida International University Board of Trustees, priority 2014, published 2015).
Entries after “also recorded” stand apart in the source; their conditions may differ. Where a name gives a salt, the structure may show the parent alone. Read-outs that look alike come from different tables or passages of the source.

Experiments:
[1] = system: 3T3-L1 cells; test: Oil Red O staining of differentiated 3T3-L1 cells (adipogenesis); format: cell-based, mouse
Method: Mouse pre-adipocytes (3T3-L1 cells) were a gracious gift from Dr Jun Liu at Mayo Clinic. 3T3-L1 cells were maintained in DMEM supplemented with 10% FBS, 100 U/ml penicillin, 100 μg/ml streptomycin and 5 μg/ml plasmocin. The cells were grown under normal culture conditions of 5% CO2 and humidity. Cells were maintained for a minimum of three passages in linear growth prior to differentiation. To differentiate the 3T3-L1 pre-adipocytes into adipocytes, we used the protocol previously described by Zebisch et al. (Zebisch, K., et al. (2012)). Briefly, 3T3-L1 pre-adipocytes were sub-cultured in DMEM supplemented with 5% newborn calf serum, 100 U/ml penicillin, 100 μg/ml streptomycin and 5 μg/ml plasmocin (Basal Media 1—BM1). The cells were then plated at 6×10^5 cells per dish in 35-mm dishes, 3×10^5 cells per well in a 12-well plate, 1.5×10^5 cells in a 24-well plate or 3.0×10^4 cells per well in a 96-well plate. The cells were grown to confluency with BM1 replacement every other day. Following 48 h of confluency, 3T3-L1 cells were treated with Differentiation medium 1 (DM1), which is BM1 supplemented with […] iso-butyl-methylxanthine, 0.25 μM dexamethasone, 1 μg/ml insulin and 2 μg/ml rosiglitazone. After 48 h, the medium was replaced with differentiation medium 2 (DM2); this is BM1 supplemented with 1 μg/ml insulin. On the seventh day, the cells were placed in DMEM with FBS. The cells were cultured to the date indicated in the experiments below with media changes every other day. The presence of adipogenesis was confirmed by microscopic detection of adipose bodies in the cells. For our experiments, only cultures with >80% differentiation were used.
Following differentiation and drug treatment, Oil Red O staining was used to qualitatively and quantitatively assess the level of neutral lipids in the differentiated cells. For qualitative assessment by phase microscopy, cells were washed twice in PBS and then fixed with 10% formalin for 30 min at room temperature. Oil Red O was reconstituted at 300 mg per 100 ml of isopropanol. The Oil Red O solution was prepared for staining by adding 20 ml of deionized water to 30 ml of the Oil Red O stock solution and filtered. The cells were then incubated for 5 min in 60% isopropanol. The Oil Red O working solution was then added to cells for 5 min. The monolyers were then rinsed clean with deionized water. The cells were then visualized using phase microscopy on the EVOS XL Core microscope. For quantitative assessment of adipogenesis in 96-well formats, cells were lysed in dimethylsulfoxide (DMSO) following the water wash of Oil Red O stained cells. The DMSO released the intracellular Oil Red O into the solution. The absorbance (492 nm) was measured using the BioTek Synergy H1 plate reader.

[2] = system: HMGA2-FL814 interaction; test: PDI-ELISA for HMGA2 binding to DNA oligomer FL814; parameters: species or system mammalian; conditions: for inhibition of HMGA2-FL814 interactions: compound at 100 nM in 2×SSCT, FIG. 12 / Table 1; for IC50: netropsin titration
[3] = system: HMGA2; test: In-cell western analysis of HMGA2 expression in 3T3-L1 cells; format: cell-based, mouse; conditions: normalized to TO-PRO-3, FIGS. 17F and G
Method: Specific protein levels were analyzed using in-cell western technology (Egorina, E. M., et al (2006)). During differentiation and drug administration, 3T3-L1 cells were fixed in 4% paraformaldehyde in PBS for 25 min at room temperature. Pre-adipocytes were quenched by washing the cells in 100 mM glycine for 5 min at room temperature. The cells were permeabilized by incubating the cells in 0.2% Triton X-100 in PBS for 30 min at room temperature. The cells were then blocked using LICOR Odyssey Blocking Buffer (LI-COR Biosciences, 927-40100) for 1 h at room temperature. Cells were then incubated with a primary antibody for HMGA2 (Cell Signaling Technologies #5269) at a 1:500 dilution in LI-COR Odyssey Blocking Buffer supplemented with 0.1% Tween-20 for 2.5 h at room temperature. The cells were washed in 0.1% Tween in PBS. Secondary antibodies (IRDye 800CW anti-rabbit, LI-COR Biosciences, 926-32211) were incubated at a dilution of 1:1000 in LI-COR Blocking Buffer supplemented with 0.1% Tween-20 for 1 h. Concurrent to the addition of secondary antibody TO-PRO-3 (Invitrogen) was added at a 1:1000 dilution as a normalization control for cell number and incubated for 1 h. The cells were washed again in 0.1% Tween-20 in PBS. Plates were then scanned on the LICOR Biosciences Odyssey CLx Infrared Imaging System and quantified using the LI-COR in-cell western analysis in Image Studio.

Cn1cc(NC(=O)c2cc(NC(=O)CN=C(N)N)cn2C)cc1C(=O)NCCC(=N)N [Netropsin, netropsin dihydrochloride]
inhibition of differentiation of 3T3-L1 cells to adipocytes ([1]; FIGS. 17A-17G): strongly inhibited | inhibition at 10 µM ([1]; Mus musculus, 10 μM, Oil red O staining, differentiated 3T3-L1 cells, read-out: inhibition of neutral lipid production): > 50% | IC50 ([1]; Mus musculus, 3T3-L1, Oil Red O absorbance 492 nm, read-out: inhibition IC50 of neutral lipids in the differentiated cells): 7.9 ± 1.1 µM | OD450 of the PDI-ELISA in the presence of the compound ([2]; 100 nM compound, 100 nM FL814, 1 μM HMGA2, 2×SSCT, OD450 without drug 1.44): 0.152 | inhibition of HMGA2-DNA interactions (OD450 back to background) ([2]; 500 nM or 1 μM netropsin, FIG. 10A, dihydrochloride): complete inhibition; also recorded: completely inhibited | inhibition of HMGA2-FL814 interactions ([2]; dihydrochloride): completely inhibit | inhibition of HMGA2-FL814 interactions ([2]; listed as netropsin, dihydrochloride): potently inhibit | IC50 ([2]; FIG. 10B, 0.5 μM HMGA2, read-out: inhibitory IC50 of HMGA2 binding to FL814): ~0.01 µM | IC50 ([2]; FIG. 11B, three titration experiments, read-out: apparent inhibitory IC50 of HMGA2 binding to FL814): 0.0093 ± 0.00078 µM | HMGA2 expression in fully differentiated 3T3-L1 cells in the presence of the compound [3]: expressed
